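Values below derive from 48-hour exposures of cells grown in 96-well plates, with endpoints linearly interpolated between the two concentrations bracketing the appropriate inhibition level. GI50 marks 50% less growth. The concentration for full growth arrest is given as TGI.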
Experiments:
Test in all cases: growth of human tumour cells (NCI), 48 h
HCT-15 colon = system: HCT-15 colon
HCC-2998 colon = system: HCC-2998 colon
TK-10 renal = system: TK-10 renal
DU-145 prostate = system: DU-145 prostate
T-47D breast = system: T-47D breast
ACHN renal = system: ACHN renal
OVCAR-5 ovarian = system: OVCAR-5 ovarian
SK-MEL-28 melanoma = system: SK-MEL-28 melanoma
MALME-3M melanoma = system: MALME-3M melanoma
786-0 renal = system: 786-0 renal
SW-620 colon = system: SW-620 colon
NCI-H23 lung = system: NCI-H23 lung
HS 578T breast = system: HS 578T breast
KM12 colon = system: KM12 colon
A549 NSCLC = system: A549 NSCLC
MDA-MB-231 breast = system: MDA-MB-231 breast
RXF 393 renal = system: RXF 393 renal
COLO 205 colon = system: COLO 205 colon
UACC-62 melanoma = system: UACC-62 melanoma
HT29 colon = system: HT29 colon
BT-549 breast = system: BT-549 breast
CCRF-CEM leukemia = system: CCRF-CEM leukemia
OVCAR-3 ovarian = system: OVCAR-3 ovarian
LOX IMVI melanoma = system: LOX IMVI melanoma
SK-OV-3 ovarian = system: SK-OV-3 ovarian
SN12C renal = system: SN12C renal
NCI/ADR-RES ovarian = system: NCI/ADR-RES ovarian
K-562 leukemia = system: K-562 leukemia
NCI-H522 lung = system: NCI-H522 lung
M14 melanoma = system: M14 melanoma
HOP-62 NSCLC = system: HOP-62 NSCLC
OVCAR-4 ovarian = system: OVCAR-4 ovarian
U251 CNS = system: U251 CNS
SK-MEL-2 melanoma = system: SK-MEL-2 melanoma
CAKI-1 renal = system: CAKI-1 renal
SNB-75 CNS = system: SNB-75 CNS
HL-60(TB) leukemia = system: HL-60(TB) leukemia
PC-3 prostate = system: PC-3 prostate
NCI-H226 lung = system: NCI-H226 lung
IGROV1 ovarian = system: IGROV1 ovarian
SK-MEL-5 melanoma = system: SK-MEL-5 melanoma
SR leukemia = system: SR leukemia
HCT-116 colon = system: HCT-116 colon
OVCAR-8 ovarian = system: OVCAR-8 ovarian
SF-295 CNS = system: SF-295 CNS
UACC-257 melanoma = system: UACC-257 melanoma
MDA-MB-435 = system: MDA-MB-435
UO-31 renal = system: UO-31 renal
RPMI-8226 leukemia = system: RPMI-8226 leukemia
SF-539 CNS = system: SF-539 CNS
A498 renal = system: A498 renal
EKVX NSCLC = system: EKVX NSCLC

`C=CCC(N[C@H](CO)c1ccccc1)c1ccccn1` (some centres undefined) gave a GI50 (HCT-15 colon) of over 100 µM, a TGI (HCT-15 colon) of over 100 µM and a GI50 (HCC-2998 colon) of over 100 µM. The TGI (HCC-2998 colon) was over 100 µM, the GI50 (TK-10 renal) was over 100 µM and the TGI (TK-10 renal) was over 100 µM. It also gave a GI50 (DU-145 prostate) of over 100 µM, a TGI (DU-145 prostate) of over 100 µM and a GI50 (T-47D breast) of over 100 µM. For the same compound, the TGI (T-47D breast) was over 100 µM, the GI50 (ACHN renal) was over 100 µM and the TGI (ACHN renal) was over 100 µM. The GI50 (OVCAR-5 ovarian) was over 100 µM, the TGI (OVCAR-5 ovarian) was over 100 µM and the GI50 (SK-MEL-28 melanoma) was over 100 µM. It also gave a TGI (SK-MEL-28 melanoma) of over 100 µM, a GI50 (MALME-3M melanoma) of over 100 µM and a TGI (MALME-3M melanoma) of over 100 µM. The GI50 (786-0 renal) was over 100 µM, the TGI (786-0 renal) was over 100 µM and the GI50 (SW-620 colon) was over 100 µM. It also gave a TGI (SW-620 colon) of over 100 µM, a GI50 (NCI-H23 lung) of over 100 µM and a TGI (NCI-H23 lung) of over 100 µM. It also gave a GI50 (HS 578T breast) of over 100 µM, a TGI (HS 578T breast) of over 100 µM and a GI50 (KM12 colon) of over 100 µM. For the same compound, the TGI (KM12 colon) was over 100 µM, the GI50 (A549 NSCLC) was over 100 µM and the TGI (A549 NSCLC) was over 100 µM. It also gave a GI50 (MDA-MB-231 breast) of over 100 µM, a TGI (MDA-MB-231 breast) of over 100 µM and a GI50 (RXF 393 renal) of over 100 µM. The TGI (RXF 393 renal) was over 100 µM, the GI50 (COLO 205 colon) was over 100 µM and the TGI (COLO 205 colon) was over 100 µM. It also gave a GI50 (UACC-62 melanoma) of over 100 µM, a TGI (UACC-62 melanoma) of over 100 µM and a GI50 (HT29 colon) of over 100 µM. It also gave a TGI (HT29 colon) of over 100 µM, a GI50 (BT-549 breast) of over 100 µM and a TGI (BT-549 breast) of over 100 µM. For the same compound, the GI50 (CCRF-CEM leukemia) was over 100 µM, the TGI (CCRF-CEM leukemia) was over 100 µM and the GI50 (OVCAR-3 ovarian) was over 100 µM. The TGI (OVCAR-3 ovarian) was over 100 µM, the GI50 (LOX IMVI melanoma) was over 100 µM and the TGI (LOX IMVI melanoma) was over 100 µM. The GI50 (SK-OV-3 ovarian) was over 100 µM, the TGI (SK-OV-3 ovarian) was over 100 µM and the GI50 (SN12C renal) was over 100 µM. For the same compound, the TGI (SN12C renal) was over 100 µM, the GI50 (NCI/ADR-RES ovarian) was over 100 µM and the TGI (NCI/ADR-RES ovarian) was over 100 µM. It also gave a GI50 (K-562 leukemia) of over 100 µM, a TGI (K-562 leukemia) of over 100 µM and a GI50 (NCI-H522 lung) of over 100 µM. For the same compound, the TGI (NCI-H522 lung) was over 100 µM, the GI50 (M14 melanoma) was over 100 µM and the TGI (M14 melanoma) was over 100 µM. The GI50 (HOP-62 NSCLC) was over 100 µM, the TGI (HOP-62 NSCLC) was over 100 µM and the GI50 (OVCAR-4 ovarian) was over 100 µM. The TGI (OVCAR-4 ovarian) was over 100 µM, the GI50 (U251 CNS) was over 100 µM and the TGI (U251 CNS) was over 100 µM. The GI50 (SK-MEL-2 melanoma) was over 100 µM, the TGI (SK-MEL-2 melanoma) was over 100 µM and the GI50 (CAKI-1 renal) was over 100 µM. It also gave a TGI (CAKI-1 renal) of over 100 µM, a GI50 (SNB-75 CNS) of over 100 µM and a TGI (SNB-75 CNS) of over 100 µM. It also gave a GI50 (HL-60(TB) leukemia) of 38.6 µM, a TGI (HL-60(TB) leukemia) of over 100 µM and a GI50 (PC-3 prostate) of over 100 µM. For the same compound, the TGI (PC-3 prostate) was over 100 µM, the GI50 (NCI-H226 lung) was over 100 µM and the TGI (NCI-H226 lung) was over 100 µM. It also gave a GI50 (IGROV1 ovarian) of 88.2 µM, a TGI (IGROV1 ovarian) of over 100 µM and a GI50 (SK-MEL-5 melanoma) of over 100 µM. The TGI (SK-MEL-5 melanoma) was over 100 µM, the GI50 (SR leukemia) was over 100 µM and the TGI (SR leukemia) was over 100 µM. For the same compound, the GI50 (HCT-116 colon) was over 100 µM, the TGI (HCT-116 colon) was over 100 µM and the GI50 (OVCAR-8 ovarian) was over 100 µM. For the same compound, the TGI (OVCAR-8 ovarian) was over 100 µM, the GI50 (SF-295 CNS) was over 100 µM and the TGI (SF-295 CNS) was over 100 µM. The GI50 (UACC-257 melanoma) was over 100 µM, the TGI (UACC-257 melanoma) was over 100 µM and the GI50 (MDA-MB-435) was over 100 µM. The TGI (MDA-MB-435) was over 100 µM, the GI50 (UO-31 renal) was over 100 µM and the TGI (UO-31 renal) was over 100 µM. For the same compound, the GI50 (RPMI-8226 leukemia) was over 100 µM, the TGI (RPMI-8226 leukemia) was over 100 µM and the GI50 (SF-539 CNS) was over 100 µM. It also gave a TGI (SF-539 CNS) of over 100 µM, a GI50 (A498 renal) of over 100 µM and a TGI (A498 renal) of over 100 µM. It also gave a GI50 (EKVX NSCLC) of over 100 µM and a TGI (EKVX NSCLC) of over 100 µM.

— PubChem BioAssay (NCI)
